Results as given in ChEMBL document CHEMBL5331050, “Spiro[benzoxazine-piperidin]-one derivatives as chitin synthase inhibitors and antifungal agents: Design, synthesis and biological evaluation” (Eur J Med Chem, 2022).
≈ marks a conversion by molar mass, not a printed value. *1 amine or outer side, *2 acyl side, *3 side chain or, on linkers, in order; H or OH if unused. Where a SMILES comes first, the peptide text is derived from it. Bridges are numbered along the chain shown (N, C = ends). [ ]: non-standard residue; d: D form. The star is where a group is joined. hTyr(3S-OH,4S-OH,3'-OSO3H) = N[C@H](C(=O)O)[C@H](O)[C@@H](O)c1ccc(O)c(OS(=O)(=O)O)c1; Orn(4R-OH,5R-OH) = O=C([C@H](C[C@@H](O)[C@@H](O)N[*:3])N[*:1])[*:2]; Pro(3S-OH,4S-Me) = C[C@H]1CN[C@H](C(=O)O)[C@H]1O; X1 = CCCCCOc1ccc(-c2cc(-c3ccc(C(=O)*)cc3)no2)cc1; Gln(3R-OH) = NC(=O)C[C@@H](O)[C@H](N)C(=O)O; Hyp = O=C(O)[C@@H]1C[C@@H](O)CN1

Tests used:
[1] = test system: Cryptococcus neoformans; test: Antifungal activity against Cryptococcus neoformans ATCC 208821 assessed as fungal growth inhibition incubated for 24 hrs by CLSI protocol based broth microdilution method; format: functional
[2] = test system: Candida tropicalis; test: Inhibition of Candida tropicalis ATCC 750 chitin synthase using UDP-GlcNAc as substrate at 300 ug/ml incubated for 1 hrs by absorbance based assay relative to control; conditions: dose 300.0 µg/ml
[3] = test system: Aspergillus flavus; test: Antifungal activity against Aspergillus flavus ATCC 16870 assessed as fungal growth inhibition incubated for 24 hrs by CLSI protocol based broth microdilution method; format: functional
[4] = test system: Candida albicans; test: Antifungal activity against Candida albicans ATCC 76615 assessed as fungal growth inhibition incubated for 24 hrs by CLSI protocol based broth microdilution method; format: functional
[5] = test system: Aspergillus fumigatus; test: Antifungal activity against Aspergillus fumigatus GIMCC 3.19 assessed as fungal growth inhibition incubated for 24 hrs by CLSI protocol based broth microdilution method; format: functional
[6] = test system: Candida albicans; test: Antifungal activity against micafungin-resistant Candida albicans ATCC 76615R assessed as fungal growth inhibition; format: functional
[7] = Inhibition of Candida tropicalis ATCC 750 chitin synthase using UDP-GlcNAc as substrate incubated for 1 hrs by absorbance based assay
[8] = test system: Cryptococcus neoformans; test: Antifungal activity against fluconazole-resistant Cryptococcus neoformans ATCC 208821R assessed as fungal growth inhibition; format: functional
[9] = test system: Candida albicans; test: Synergistic antifungal activity against Candida albicans ATCC 76615 assessed as fungal growth inhibition incubated for 24 hrs in the presence of fluconazole by broth dilution based checkerboard method; format: functional
[10] = test system: Candida albicans; test: Antifungal activity against fluconazole-resistant Candida albicans ATCC 76615R assessed as fungal growth inhibition; format: functional
[11] = test system: Candida albicans; test: Synergistic antifungal activity against Candida albicans ATCC 76615 assessed as fractional inhibitory concentration index incubated for 24 hrs in the presence of fluconazole by broth dilution based checkerboard method; format: functional
[12] = test system: Aspergillus flavus; test: Synergistic antifungal activity against Aspergillus flavus ATCC 16870 assessed as fractional inhibitory concentration index incubated for 24 hrs in the presence of fluconazole by broth dilution based checkerboard method; format: functional
[13] = test system: Aspergillus fumigatus; test: Synergistic antifungal activity against Aspergillus fumigatus GIMCC 3.19 assessed as fungal growth inhibition incubated for 24 hrs in the presence of fluconazole by broth dilution based checkerboard method; format: functional
[14] = test system: Aspergillus fumigatus; test: Synergistic antifungal activity against Aspergillus fumigatus GIMCC 3.19 assessed as fractional inhibitory concentration index incubated for 24 hrs in the presence of fluconazole by broth dilution based checkerboard method; format: functional
[15] = test system: Cryptococcus neoformans; test: Synergistic antifungal activity against Cryptococcus neoformans ATCC 208821 assessed as fungal growth inhibition incubated for 24 hrs in the presence of fluconazole by broth dilution based checkerboard method; format: functional
[16] = test system: Cryptococcus neoformans; test: Synergistic antifungal activity against Cryptococcus neoformans ATCC 208821 assessed as fractional inhibitory concentration index incubated for 24 hrs in the presence of fluconazole by broth dilution based checkerboard method; format: functional
[17] = test system: Aspergillus flavus; test: Synergistic antifungal activity against Aspergillus flavus ATCC 16870 assessed as fungal growth inhibition incubated for 24 hrs in the presence of fluconazole by broth dilution based checkerboard method; format: functional

SMILES: COc1ccc2c(c1)C1(CCN(C(=O)CC(=O)Nc3ccc(C)cc3)CC1)OC(=O)N2
- MIC [1]: > 512 µg/mL
- inhibition [2]: 13%
- MIC [3]: > 512 µg/mL
- MIC [4]: 512 µg/mL (≈ 1210 µM)
- MIC [5]: > 512 µg/mL

SMILES: COc1ccc2c(c1)C1(CCN(C(=O)/C=C/C(=O)Nc3cccc4ccccc34)CC1)OC(=O)N2
- MIC [1]: 256 µg/mL (≈ 543 µM)
- inhibition [2]: 46%
- MIC [3]: > 512 µg/mL
- MIC [4]: 256 µg/mL (≈ 543 µM)
- MIC [5]: > 512 µg/mL

SMILES: COc1ccc(NC(=O)CC(=O)N2CCC3(CC2)OC(=O)Nc2ccc(OC)cc23)cc1
- MIC [1]: > 512 µg/mL
- inhibition [2]: 16%
- MIC [3]: > 512 µg/mL
- MIC [4]: 512 µg/mL (≈ 1170 µM)
- MIC [5]: 256 µg/mL (≈ 583 µM)

SMILES: COc1ccc2c(c1)C1(CCN(C(=O)/C=C/C(=O)Nc3ccc(C(F)(F)F)cc3C(F)(F)F)CC1)OC(=O)N2
- MIC [1]: > 512 µg/mL
- inhibition [2]: 30%
- MIC [3]: > 512 µg/mL
- MIC [4]: 256 µg/mL (≈ 459 µM)
- MIC [5]: > 512 µg/mL

SMILES: CCCCCOc1ccc(-c2cc(-c3ccc(C(=O)N[C@H]4C[C@@H](O)[C@@H](O)NC(=O)[C@@H]5[C@@H](O)[C@@H](C)CN5C(=O)[C@H]([C@H](O)CC(N)=O)NC(=O)[C@H]([C@H](O)[C@@H](O)c5ccc(O)c(OS(=O)(=O)O)c5)NC(=O)[C@@H]5C[C@@H](O)CN5C(=O)[C@H]([C@@H](C)O)NC4=O)cc3)no2)cc1 [MICAFUNGIN] (X1-[Orn(4R-OH,5R-OH)]T[Hyp][hTyr(3S-OH,4S-OH,3'-OSO3H)][Gln(3R-OH)][Pro(3S-OH,4S-Me)]; lactam 1-C)
- MIC [6]: 256 µg/mL (≈ 202 µM)
- MIC [1]: > 512 µg/mL
- MIC [4]: 0.063 µg/mL (≈ 0.0496 µM)

SMILES: COc1ccc2c(c1)C1(CCN(C(=O)/C=C/C(=O)Nc3ccccc3OC)CC1)OC(=O)N2
- MIC [1]: 256 µg/mL (≈ 567 µM)
- inhibition [2]: 60%
- MIC [3]: 128 µg/mL (≈ 284 µM)
- IC50 [7]: 330 µM
- MIC [4]: 64 µg/mL (≈ 142 µM)
- MIC [5]: 128 µg/mL (≈ 284 µM)

SMILES: COc1ccc2c(c1)C1(CCN(C(=O)CC(=O)Nc3ccc(Br)cc3)CC1)OC(=O)N2
- MIC [1]: 256 µg/mL (≈ 524 µM)
- inhibition [2]: 18%
- MIC [3]: 256 µg/mL (≈ 524 µM)
- MIC [4]: 512 µg/mL (≈ 1050 µM)
- MIC [5]: 256 µg/mL (≈ 524 µM)

SMILES: COc1cccc(NC(=O)/C=C/C(=O)N2CCC3(CC2)OC(=O)Nc2ccc(OC)cc23)c1
- MIC [1]: 64 µg/mL (≈ 142 µM)
- inhibition [2]: 37%
- MIC [3]: 128 µg/mL (≈ 284 µM)
- MIC [4]: 256 µg/mL (≈ 567 µM)
- MIC [5]: 128 µg/mL (≈ 284 µM)

SMILES: COc1ccc2c(c1)C1(CCN(C(=O)CCC(=O)Nc3ccc(C)cc3)CC1)OC(=O)N2
- MIC [1]: 256 µg/mL (≈ 585 µM)
- inhibition [2]: 11%
- MIC [3]: 256 µg/mL (≈ 585 µM)
- MIC [4]: 128 µg/mL (≈ 293 µM)
- MIC [5]: > 512 µg/mL

SMILES: COc1ccc2c(c1)C1(CCN(C(=O)/C=C/C(=O)Nc3cc(C)cc(C)c3)CC1)OC(=O)N2
- MIC [1]: > 512 µg/mL
- inhibition [2]: 16%
- MIC [3]: 512 µg/mL (≈ 1140 µM)
- MIC [4]: 512 µg/mL (≈ 1140 µM)
- MIC [5]: > 512 µg/mL

SMILES: COc1ccc2c(c1)C1(CCN(C(=O)CCC(=O)Nc3ccccc3)CC1)OC(=O)N2
- MIC [1]: > 512 µg/mL
- inhibition [2]: 6%
- MIC [3]: 256 µg/mL (≈ 605 µM)
- MIC [4]: > 512 µg/mL
- MIC [5]: > 512 µg/mL

SMILES: COc1ccc2c(c1)C1(CCN(C(=O)C(O)C(O)C(=O)Nc3ccc(Br)cc3)CC1)OC(=O)N2 (configuration not stated)
- MIC [1]: 512 µg/mL (≈ 958 µM)
- inhibition [2]: 43%
- MIC [3]: 512 µg/mL (≈ 958 µM)
- MIC [4]: > 512 µg/mL
- MIC [5]: > 512 µg/mL

SMILES: COc1ccc2c(c1)C1(CCN(C(=O)/C=C/C(=O)Nc3ccc(C(F)(F)F)cc3)CC1)OC(=O)N2
- MIC [1]: 256 µg/mL (≈ 523 µM)
- inhibition [2]: 15%
- MIC [3]: 128 µg/mL (≈ 262 µM)
- MIC [4]: 512 µg/mL (≈ 1050 µM)
- MIC [5]: > 512 µg/mL

SMILES: COc1ccc2c(c1)C1(CCN(C(=O)/C=C/C(=O)Nc3ccc(C)cc3)CC1)OC(=O)N2
- MIC [1]: 256 µg/mL (≈ 588 µM)
- inhibition [2]: 65%
- MIC [3]: 256 µg/mL (≈ 588 µM)
- IC50 [7]: 370 µM
- MIC [4]: 128 µg/mL (≈ 294 µM)
- MIC [5]: 256 µg/mL (≈ 588 µM)

SMILES: COc1ccc2c(c1)C1(CCN(C(=O)/C=C/C(=O)Nc3cccc([N+](=O)[O-])c3)CC1)OC(=O)N2
- MIC [1]: 256 µg/mL (≈ 549 µM)
- inhibition [2]: 34%
- MIC [3]: 256 µg/mL (≈ 549 µM)
- MIC [4]: 128 µg/mL (≈ 274 µM)
- MIC [5]: 107 µg/mL (≈ 229 µM)

SMILES: COc1ccc2c(c1)C1(CCN(C(=O)/C=C/C(=O)Nc3ccc(F)c(Cl)c3)CC1)OC(=O)N2
- MIC [8]: 64 µg/mL (≈ 135 µM)
- MIC [9]: 64 µg/mL
- MIC [10]: 53.3 µg/mL (≈ 113 µM)
- MIC [6]: 64 µg/mL (≈ 135 µM)
- MIC [1]: 64 µg/mL (≈ 135 µM)
- fractional inhibitory concentration index (FICI) [11]: 2
- inhibition [2]: 70%
- fractional inhibitory concentration index (FICI) [12]: 1.125
- MIC [3]: 16 µg/mL (≈ 33.8 µM)
- MIC [13]: 8 µg/mL
- IC50 [7]: 160 µM
- MIC [4]: 64 µg/mL (≈ 135 µM)
- fractional inhibitory concentration index (FICI) [14]: 0.75
- MIC [5]: 16 µg/mL (≈ 33.8 µM)
- MIC [15]: 32 µg/mL
- fractional inhibitory concentration index (FICI) [16]: 0.625
- MIC [17]: 64 µg/mL
